Measured values: US20110160303A1, “N-ALKYLCARBONYL-AMINO ACID ESTER AND N-ALKYLCARBONYL-AMINO LACTONE COMPOUNDS AND THEIR USE” (Edward Tak WEI, priority 2005, published 2011)

How the values were obtained:
[1] = test system: oral cavity; test: Oral cavity test, substance placed on dorsal surface of the tongue; format: in vivo, human
[2] = test system: cough; test: Study 8: cough in cigar smokers, powder on the tongue; format: in vivo, human
Source text: Two males, were inveterate cigar smokers consuming 3 to 5 cigars per day. They both had frequent bouts of dry, non-productive, hacking coughs. At night, there were episodes of insomnia characterized by difficulties in breathing, an oppressive pressure on the chest and throat, and subsequent awakening with sensations of choking. During the day, a frequent and persistent sensation was that of tickling, irritative feelings in the back of the throat that led to coughing.
In 20 trials, 10 trials per subject, two mg of 95%+pure powder of a D-Ala ethyl compound falling within Formula (1) (R)-2-[((1R,2S,5R)-2-isopropyl-5-methyl-cyclohexanecarbonyl)-amino]-propionic acid ethyl ester) was placed on the mid-portion of the tongue of these two subjects. Both subjects reported relief from the desire to cough within 1 minute after application. Sensations of robust coolness in the back of the throat was noted and lasted for about 30 minutes. Applications of similar amounts of powdered sugar were not effective, but the placebo could be clearly distinguished from the active compound because of the absence of cooling sensations.
After application of test substance, the absence of irritation and itching at the back of the throat (cough signals) lasted for about 4 to 5 hours and the individual was observed not to cough for 6 to 8 hours. […] This therapeutic effect occurred when the test substance no longer elicited cooling sensations in the oropharynx.

[3] = test system: asthma cough; test: Study 9: asthmatic cough, powder on the tongue; format: in vivo, human; details: continued use
Source text: A person with a documented 31-year history of asthma attacks volunteered to test one of the compounds falling within Formula (1). They were extremely sensitive to agents such as tobacco smoke, dust, pollen, odors, down/woolen materials, house cleansing products, pets, and sudden change of air temperature, and reacted with violent coughing, mucus secretions, wheezing, choking, and shortness of breath. At the time of this trial, they were taking these medications for their condition: theophylline, Allegra®, Advair®, Intal®, and Singulair®. In 5 trials, during a coughing spree, they placed one to two mg of 95%+ pure powder of a D-Ala ethyl ester falling within Formula (1) ((R)-2-[((1R,2S,5R)-2-isopropyl-5-methyl-cyclohexanecarbonyl)-amino]-propionic acid ethyl ester)) on the mid-portion of their tongue. They reported a soothing and cool sensation with a slight taste similar to Eucalyptus oil in their mouth and throat. Coughing stopped after 3 to 5 minutes and breathing was normal. […] In three trials when the compound was applied at night, they slept through the night without being awakened by cough. Their spouse remarked that, in over 30 years of marriage, this was the first time that they had seen an effective medication for their cough. […]

[4] = test system: skin above the upper lip; test: Cooling sensation on facial skin, ointment applied to skin above the upper lip; format: in vivo, human; parameters: key to refreshing cooling and absence of skin irritation or eye irritation (“perfect cool”): (*) denotes compounds with refreshing cooling and absence of skin irritation or eye irritation after facial skin or periorbital applications; a “perfect cool.”; details: for Duration of Skin Cooling: 40 mM (1% wt/vol) ointment
[5] = test system: tongue; details: Watson et al., filter paper on tongue, 6 subjects; cited from earlier work
[6] = test system: periorbital skin; test: Irritancy near the eyes, ointment applied to periorbital skin; format: in vivo, human; details: Table 1 summary
Source text: The ointment is also applied to the periorbital skin (upper and lower eyelids and on skin adjacent to the lateral canthus) for tests of irritancy near the eyes, and the subject is asked if irritation is present or absent. The intensity of the eye sensation is not rated. For tests of irritancy near the eyes, the ointment was applied to the periorbital skin (upper and lower eyelids and on skin adjacent to the lateral canthus), and the subject asked if irritation is present or absent. The intensity of the eye sensation is not rated, but just noted as being present or absent.

SMILES | duration of cooling sensations on the tongue ([1]; dose of 1 to 2 mg, normal subjects) | time the desire to cough was removed ([2]; after 4 or 6 applications within 2 days, continued smoking) | duration of robust coolness in the back of the throat ([2]; two mg powder on tongue) | time to relief from the desire to cough ([2]; two mg powder on tongue, 20 trials in 2 subjects) [min] | recurrence of asthmatic coughing attacks [3] | Duration of Skin Cooling ([4]; skin above upper lip) [h] | Duration of Action On-Off (minutes): On (onset) ([4]; 40 mM (~1% wt/vol) Aquaphor ointment, 40 to 70 mg, skin above upper lip, time to reach 2 units of coolness) [min] | Duration of Action On-Off (minutes): duration (offset minus onset) ([4]; 40 mM Aquaphor ointment, skin above upper lip) [min] | Duration of Action On-Off (minutes): Off (offset) ([4]; 40 mM Aquaphor ointment, skin above upper lip, time when coolness drops below 2 units) [min] | refreshing cooling and absence of skin irritation or eye irritation (“perfect cool”) ([4]; after facial skin or periorbital applications) | average threshold for cooling on the tongue [5] [µg] | Eye Irritancy [6] | Cooling on tongue ([1]; Table 1 summary) | Acts for >1 hour at 40 mM ([4]; Table 1 summary) | Cooling on skin of face ([4]; Table 1 summary) | “perfect” cooling experience ([4]; Table 1 summary)
CCOC(=O)[C@@H](C)NC(=O)[C@@H]1C[C@H](C)CC[C@H]1C(C)C [D-Ala Et Ester, (R)-2-[((1R,2S,5R)-2-isopropyl-5-methyl-cyclohexanecarbonyl)-amino]-propionic acid ethyl ester] | about 30 minutes | at least 5 days | about 30 minutes | ≤ 1 | have not recurred with any severity for one month | 2.4 | 1 | 142 | 143 | D-Ala Et Ester (*) | – | – | – | – | – | –
CC(C)[C@@H]1CC[C@@H](C)C[C@H]1O [(−)-menthol, 1R-(1α-2β-5α)-5-methyl-2-(1-methylethyl)cyclohexanol, reference compound] | – | – | – | – | – | 0.3 | – | – | – | – | 0.25 | yes | yes | no | yes | no
